Data from ChEMBL document CHEMBL1165899, “Synthesis and antitumor evaluation of novel cyclic arylsulfonylureas: ADME-T and pharmacophore prediction” (2010).

Columns and labels:
Format in all cases: functional
[1] = test system: SK-MEL-2; assay: Growth inhibition of human SK-MEL-2 cells at 10 uM after 48 hrs by sulforhodamine B assay relative to control; conditions: SK-MEL-2, 48 h, read-out: GI
[2] = test system: M14; assay: Growth inhibition of human M14 cells at 10 uM after 48 hrs by sulforhodamine B assay relative to control; conditions: M14, 48 h, read-out: GI
[3] = test system: OVCAR-8; assay: Growth inhibition of human OVCAR8 cells at 10 uM after 48 hrs by sulforhodamine B assay relative to control; conditions: OVCAR-8, 48 h, read-out: GI
[4] = test system: IGROV-1; assay: Growth inhibition of human IGROV1 cells at 10 uM after 48 hrs by sulforhodamine B assay relative to control; conditions: IGROV-1, 48 h, read-out: GI
[5] = test system: RXF 393; assay: Growth inhibition of human RXF393 cells at 10 uM after 48 hrs by sulforhodamine B assay relative to control; conditions: RXF 393, 48 h, read-out: GI

SMILES	inhibition of growth at 10 µM [1] [%]	inhibition of growth at 10 µM [2] [%]	inhibition of growth at 10 µM [3] [%]	inhibition of growth at 10 µM [4] [%]	inhibition of growth at 10 µM [5] [%]
Cc1ccc(S(=O)(=O)N2C(=O)CC(=O)N(c3ccc(Cl)cc3)C2=O)cc1	73.9	-7.35	54.1	65.6	–
O=C1N/C(=C\c2ccccc2)C(=O)N1S(=O)(=O)c1ccc(Cl)cc1	11.7	–	3.88	-9.05	0.92
COc1ccc(N2C(=O)CC(=O)N(S(=O)(=O)c3ccc(Cl)cc3)C2=O)cc1	61.1	-3.04	42.4	76.5	–
CN(C)c1ccc(/C=C2\NC(=O)N(S(=O)(=O)c3ccccc3)C2=O)cc1	3.98	-2.88	1.17	107	80.3
COc1ccc(/C=C2\NC(=O)N(S(=O)(=O)c3ccc(Cl)cc3)C2=O)cc1	8.98	–	-1.23	-1.97	84.1
O=C1N/C(=C\c2ccc(Cl)cc2)C(=O)N1S(=O)(=O)c1ccccc1	19.9	–	6.79	1.13	7.42
O=c1c2ccccc2n(S(=O)(=O)c2ccc(Cl)cc2)c(=O)n1-c1ccccc1	79.3	17.4	40.9	91.4	–
O=C1N/C(=C\c2ccc(Cl)cc2)C(=O)N1S(=O)(=O)c1ccc(Cl)cc1	17.6	-20.1	4.01	81	76.2
COc1ccc(/C=C2\NC(=O)N(S(=O)(=O)c3ccccc3)C2=O)cc1	11.6	–	5.23	115	96.5
O=c1c2ccccc2n(S(=O)(=O)c2ccccc2)c(=O)n1-c1ccccc1	70.4	1.02	33.2	86.8	–
COc1ccc(-n2c(=O)c3ccccc3n(S(=O)(=O)c3ccccc3)c2=O)cc1	-43.2	56.5	26	63.2	43
O=C1CC(=O)N(S(=O)(=O)c2ccc(Cl)cc2)C(=O)N1c1ccccc1	65.1	8.19	58.9	34.1	–
